This assay has as its target T1, Amine oxidase [flavin-containing] A (Rattus norvegicus, UniProt P21396).
T1 sequence (P21396 whole entry): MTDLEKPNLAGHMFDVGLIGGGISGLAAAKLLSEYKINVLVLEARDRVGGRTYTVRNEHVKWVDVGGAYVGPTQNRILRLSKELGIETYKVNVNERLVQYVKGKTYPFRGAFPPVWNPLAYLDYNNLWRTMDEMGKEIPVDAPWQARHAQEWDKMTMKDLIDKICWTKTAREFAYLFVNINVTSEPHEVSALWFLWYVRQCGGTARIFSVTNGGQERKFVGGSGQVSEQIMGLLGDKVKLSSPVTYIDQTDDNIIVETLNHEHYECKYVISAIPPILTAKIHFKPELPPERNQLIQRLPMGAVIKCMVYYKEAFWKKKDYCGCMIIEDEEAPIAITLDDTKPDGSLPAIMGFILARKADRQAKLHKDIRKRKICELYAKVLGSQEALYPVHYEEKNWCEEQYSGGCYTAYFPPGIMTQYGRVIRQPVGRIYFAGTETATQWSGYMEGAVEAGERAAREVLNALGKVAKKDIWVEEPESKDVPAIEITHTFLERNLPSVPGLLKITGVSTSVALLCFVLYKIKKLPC
Kind of assay: Inhibition of Sprague-Dawley rat MAO-A.

Regarding `C[C@H](NCc1ccc(OCc2cccc(F)c2)cc1)C(N)=O` [SAFINAMIDE], half-maximal inhibition (IC50) was put at 2800 nM.

The record behind these values is ChEMBL document CHEMBL5143679, “Discovery of 3, 6-disubstituted isobenzofuran-1(3H)-ones as novel inhibitors of monoamine oxidases” (Bioorg Med Chem Lett, 2022).
